Assay results as given in patent US9420793B2, “Antiparasitic compounds” (Avista Pharma Solutions, priority 2015, dated 2016).
Read-outs that look alike come from different tables or passages of the source.

Columns and labels:
[1] = tested on: Dirofilaria immitis microfilariae; assay: Dirofilaria immitis microfilariae motility assay; details: 72 h, read-out: concentration at which active, microfilariae motility
[2] = tested on: Aedes aegypti; assay: In vitro evaluation of ingestion activity against mosquitoes; details: at 20 hours, compound in bovine blood, read-out: concentration at which active, mosquito ingestion
Method: In Vitro Evaluation of Ingestion Activity Against Mosquitoes (Aedes aegypti)
A solution of test compounds is added to bovine blood contained in a feeding chamber to reach the desired final concentration. Blood spiked with DMSO is prepared to serve as control. Adult female mosquitoes are introduced at the bottom of the chamber and allowed to feed on blood mixtures containing DMSO or test compounds for 30 minutes. Fully engorged mosquitoes are sorted into clean chambers after the blood meal and monitored for survival over 3 days. Replicates containing 10 mosquitoes are performed with each test compound concentration and results calculated as % mortality at specific time points.

[3] = tested on: R. sanguineus; assay: In vitro tick contact assay, comparison with standards
Method: (§1) A solution of the test compounds was used to coat the inner wall of glass vials and to treat two filter papers. Once dried, one filter paper was placed in the cap of the vial and the other in the bottom of the vial. Each treated vial was infested with 10 ticks. Contact of the ticks with residues was induced by holding the vials in a controlled environment and assessment was performed at 12, 24 and 48 hours after application in comparison with untreated glass vials and solvent-treated glass vials. Compounds were tested in duplicate and two separate trials (n=4).

[4] = tested on: Ctenocephalides felis; details: fleas
Method: In Vitro Evaluation of Ingestion Activity Against Fleas (Ctenocephalides Felis)
For flea ingestion tests, an aliquot of each compound stock was added to organic bovine blood contained in an artificial feeding container, with a final DMSO concentration of 0.5%. Ten newly emerged unfed fleas, Ctenocephalides felis, from a laboratory colony, 0-7 days old, were aspirated into a chamber and exposed to the appropriate feeding container and held in a controlled environment at 35° C. Fleas were evaluated for % mortality at 24, 48, and 72 hours post infestation. Fleas showing normal movement and/or jumping ability were considered viable and those showing no movement after tapping the vials were scored as dead. The compound+blood mixture was replaced every 24 hours.

[5] = tested on: Ctenocephalides felis; assay: Ctenocephalides felis residual contact assay; details: 48 h; fleas
Method: Ctenocephalides felis Residual Contact Assay
A solution of the test compounds, individually and in combination was dispensed onto a substrate placed into a glass vial. The treated surface was allowed to dry before infesting each vial with 10 adult Ctenocephalides felis. The treated vials were held in a controlled environment and assessment was performed at 6, 24 and 48 hours after application in comparison with untreated controls glass vials and solvent-treated glass vials. Compounds were tested in duplicate and two separate trials (n=4).

[6] = tested on: D. variabilis; assay: In vitro tick contact assay, comparison with standards
Method: as §1

[7] = tested on: A. americanum; assay: as above; details: 48 h
Method: as §1

[8] = tested on: I. scapularis; assay: as above
Method: as §1

Question: CC(F)(F)C(=O)N1CC2(C1)OCc1cc(C3=NSC(c4cc(Cl)c(F)c(Cl)c4)(C(F)(F)F)C3)ccc12 (centres unmarked) [Compound 31, 1-[6-[5-(3,5-dichloro-4-fluoro-phenyl)-5-(trifluoromethyl)-4H-isothiazol-3-yl]spiro[1H-isobenzofuran-3,3′-azetidine]-1′-yl]-2,2-difluoro-propan-1-one] was tested. Which minimal effective concentration [1] did it give?
Answer: The minimal effective concentration was under 10 µM.

Question: O=C(N1CC2(C1)OCc1cc(C3=NSC(c4cc(Cl)c(F)c(Cl)c4)(C(F)(F)F)C3)ccc12)C(F)(F)C(F)(F)F (centres unmarked) [Compound 30, 1-[6-[5-(3,5-dichloro-4-fluoro-phenyl)-5-(trifluoromethyl)-4H-isothiazol-3-yl]spiro[1H-isobenzofuran-3,3′-azetidine]-1′-yl]-2,2,3,3,3-pentafluoro-propan-1-one] was tested. Which minimal effective concentration [1] did it give?
Answer: Its minimal effective concentration is under 10 µM.

Question: And the minimal effective concentration [2]?
Answer: The minimal effective concentration was under 1 µg/mL.

Question: Which “R. sanguineus Contact EC50” value ([3]; 24 h) does the source give for CS(=O)(=O)CC(=O)N1CC2(C1)OCc1cc(C3=NO[C@@](c4cc(Cl)c(F)c(Cl)c4)(C(F)(F)F)C3)ccc12 (racemic) [(+/−) Sarolaner, Sarolaner] here?
Answer: Its value is 37.8 ± 12.2 ppm.

Question: What about the “R. sanguineus Contact EC50” value ([3]; 48 h) of the same compound?
Answer: Its value is 12.7 ± 0.1 ppm.

Question: And the “Ingestion EC50” value ([4]; 24 h)?
Answer: Its value is 1.23 ± 0.11 ppm.

Question: Which minimal effective concentration [1] does the source give for CC(C)C(=O)N1CC2(C1)OCc1cc(C3=NSC(c4cc(Cl)c(F)c(Cl)c4)(C(F)(F)F)C3)ccc12 (centres unmarked) [Compound 25, 1-[6-[5-(3,5-dichloro-4-fluoro-phenyl)-5-(trifluoromethyl)-4H-isothiazol-3-yl]spiro[1H-isobenzofuran-3,3′-azetidine]-1′-yl]-2-methyl-propan-1-one] here?
Answer: The minimal effective concentration was under 10 µM.

Question: Which minimal effective concentration [1] does the source give for CCCCCC(=O)N1CC2(C1)OCc1cc(C3=NSC(c4cc(Cl)c(F)c(Cl)c4)(C(F)(F)F)C3)ccc12 (centres unmarked) [Compound 36, 1-[6-[5-(3,5-dichloro-4-fluoro-phenyl)-5-(trifluoromethyl)-4H-isothiazol-3-yl]spiro[1H-isobenzofuran-3,3′-azetidine]-1′-yl]hexan-1-one] here?
Answer: Its minimal effective concentration is under 10 µM.

Question: With CCCCC(=O)N1CC2(C1)OCc1cc(C3=NSC(c4cc(Cl)c(F)c(Cl)c4)(C(F)(F)F)C3)ccc12 (centres unmarked) [Compound 35, 1-[6-[5-(3,5-dichloro-4-fluoro-phenyl)-5-(trifluoromethyl)-4H-isothiazol-3-yl]spiro[1H-isobenzofuran-3,3′-azetidine]-1′-yl]pentan-1-one] as the compound, how does the minimal effective concentration [1] read?
Answer: The minimal effective concentration was under 10 µM.

Question: What about the minimal effective concentration [2] of the same compound?
Answer: Its minimal effective concentration is under 1 µg/mL.

Question: How did the minimal effective concentration [1] turn out when O=C(C1CCOCC1)N1CC2(C1)OCc1cc(C3=NSC(c4cc(Cl)c(F)c(Cl)c4)(C(F)(F)F)C3)ccc12 (centres unmarked) [Compound 19, [6-[5-(3,5-dichloro-4-fluoro-phenyl)-5-(trifluoromethyl)-4H-isothiazol-3-yl]spiro[1H-isobenzofuran-3,3′-azetidine]-1′-yl]-tetrahydropyran-4-yl-methanone] was run?
Answer: The minimal effective concentration was under 10 µM.

Question: What about the minimal effective concentration [2] of the same compound?
Answer: The minimal effective concentration was under 1 µg/mL.

Question: Which “Contact EC50” value [5] does the source give for Cc1cc(C2=NOC(c3cc(Cl)cc(Cl)c3)(C(F)(F)F)C2)ccc1C(=O)NCC(=O)NCC(F)(F)F (centres unmarked) [Fluralaner] here?
Answer: Its value is over 50 ppm.

Question: What about the “R. sanguineus Contact EC50” value ([3]; 24 h) of the same compound?
Answer: Its value is 37.1 ± 16.3 ppm.

Question: What about the “R. sanguineus Contact EC50” value ([3]; 48 h) of the same compound?
Answer: The value was 9.8 ± 5.0 ppm.

Question: And the “D. variabilis Contact EC50” value ([6]; 24 h)?
Answer: Its value is 18.4 ± 3.0 ppm.

Question: And the “D. variabilis Contact EC50” value ([6]; 48 h)?
Answer: Its value is 4.9 ± 1.4 ppm.

Question: What about the “A. americanum Contact EC50” value [7] of the same compound?
Answer: Its value is 20.4 ± 10.7 ppm.

Question: What about the “I. scapularis Contact EC50” value ([8]; 24 h) of the same compound?
Answer: The value was 6.4 ± 3.3 ppm.

Question: And the “I. scapularis Contact EC50” value ([8]; 48 h)?
Answer: The value was 1.3 ± 0.2 ppm.

Question: What about the “Ingestion EC50” value ([4]; 2 h) of the same compound?
Answer: Its value is 1.6 ± 0.7 ppm.

Question: What about the “Ingestion EC50” value ([4]; 24 h) of the same compound?
Answer: Its value is 0.06 ± 0.02 ppm.

Question: What does the source list for CCNC(=O)N1CC2(C1)OCc1cc(C3=NSC(c4cc(Cl)c(F)c(Cl)c4)(C(F)(F)F)C3)ccc12 (centres unmarked) [Compound 16, 6-[5-(3,5-dichloro-4-fluoro-phenyl)-5-(trifluoromethyl)-4H-isothiazol-3-yl]-N-ethyl-spiro[1H-isobenzofuran-3,3′-azetidine]-1′-carboxamide]?
Answer: minimal effective concentration [1]: < 10 µM; minimal effective concentration [2]: < 1 µg/mL

Question: Which minimal effective concentration [1] does the source give for CCOCC(=O)N1CC2(C1)OCc1cc(C3=NSC(c4cc(Cl)c(F)c(Cl)c4)(C(F)(F)F)C3)ccc12 (centres unmarked) [Compound 24, 1-[6-[5-(3,5-dichloro-4-fluoro-phenyl)-5-(trifluoromethyl)-4H-isothiazol-3-yl]spiro[1H-isobenzofuran-3,3′-azetidine]-1′-yl]-2-ethoxy-ethanone] here?
Answer: The minimal effective concentration was under 10 µM.

Question: How did the minimal effective concentration [1] turn out when CC(=O)N1CC2(C1)OCc1cc(C3=NSC(c4cc(Cl)c(F)c(Cl)c4)(C(F)(F)F)C3)ccc12 (centres unmarked) [Compound 27, 1-[6-[5-(3,5-dichloro-4-fluoro-phenyl)-5-(trifluoromethyl)-4H-isothiazol-3-yl]spiro[1H-isobenzofuran-3,3′-azetidine]-1′-yl]ethanone] was run?
Answer: The minimal effective concentration was under 10 µM.

Question: What does the source list for CNC(=O)N1CC2(C1)OCc1cc(C3=NSC(c4cc(Cl)c(F)c(Cl)c4)(C(F)(F)F)C3)ccc12 (centres unmarked) [Compound 41, 6-[5-(3,5-dichloro-4-fluoro-phenyl)-5-(trifluoromethyl)-4H-isothiazol-3-yl]-N-methyl-spiro[1H-isobenzofuran-3,3′-azetidine]-1′-carboxamide]?
Answer: minimal effective concentration [1]: < 10 µM; minimal effective concentration [2]: < 1 µg/mL

Question: How did the minimal effective concentration [1] turn out when CCC(=O)N1CC2(C1)OCc1cc(C3=NSC(c4cc(Cl)c(F)c(Cl)c4)(C(F)(F)F)C3)ccc12 (centres unmarked) [Compound 26, 1-[6-[5-(3,5-dichloro-4-fluoro-phenyl)-5-(trifluoromethyl)-4H-isothiazol-3-yl]spiro[1H-isobenzofuran-3,3′-azetidine]-1′-yl]propan-1-one] was run?
Answer: The minimal effective concentration was under 10 µM.

Question: With O=C(c1ccc(N2CCOCC2)cc1)N1CC2(C1)OCc1cc(C3=NSC(c4cc(Cl)c(F)c(Cl)c4)(C(F)(F)F)C3)ccc12 (centres unmarked) [Compound 13, [6-[5-(3,5-dichloro-4-fluoro-phenyl)-5-(trifluoromethyl)-4H-isothiazol-3-yl]spiro[1H-isobenzofuran-3,3′-azetidine]-1′-yl]-(4-morpholinophenyl)methanone] as the compound, how does the minimal effective concentration [1] read?
Answer: The minimal effective concentration was under 10 µM.

Question: For CC(C)(C)CCN1CC2(C1)OCc1cc(C3=NSC(c4cc(Cl)c(F)c(Cl)c4)(C(F)(F)F)C3)ccc12 (centres unmarked) [Compound 21, 6-[5-(3,5-dichloro-4-fluoro-phenyl)-5-(trifluoromethyl)-4H-isothiazol-3-yl]-1′-(3,3-dimethylbutyl)spiro[1H-isobenzofuran-3,3′-azetidine]], which minimal effective concentration [1] is on record?
Answer: Its minimal effective concentration is under 10 µM.

Question: How did the minimal effective concentration [1] turn out when O=C(Nc1ccccc1)N1CC2(C1)OCc1cc(C3=NSC(c4cc(Cl)c(F)c(Cl)c4)(C(F)(F)F)C3)ccc12 (centres unmarked) [Compound 17, 6-[5-(3,5-dichloro-4-fluoro-phenyl)-5-(trifluoromethyl)-4H-isothiazol-3-yl]-N-phenyl-spiro[1H-isobenzofuran-3,3′-azetidine]-1′-carboxamide] was run?
Answer: Its minimal effective concentration is under 10 µM.

Question: What about the minimal effective concentration [2] of the same compound?
Answer: The minimal effective concentration was under 1 µg/mL.

Question: Which results are given for N#CCC(=O)N1CC2(C1)OCc1cc(C3=NSC(c4cc(Cl)c(F)c(Cl)c4)(C(F)(F)F)C3)ccc12 (centres unmarked) [Compound 29, 3-[6-[5-(3,5-dichloro-4-fluoro-phenyl)-5-(trifluoromethyl)-4H-isothiazol-3-yl]spiro[1H-isobenzofuran-3,3′-azetidine]-1′-yl]-3-oxo-propanenitrile]?
Answer: minimal effective concentration [1]: < 10 µM; minimal effective concentration [2]: < 1 µg/mL

Question: Which minimal effective concentration [1] does the source give for Fc1c(Cl)cc(C2(C(F)(F)F)CC(c3ccc4c(c3)COC43CN(c4ncccn4)C3)=NS2)cc1Cl (centres unmarked) [Compound 40, 6-[5-(3,5-dichloro-4-fluoro-phenyl)-5-(trifluoromethyl)-4H-isothiazol-3-yl]-1′-pyrimidin-2-yl-spiro[1H-isobenzofuran-3,3′-azetidine]] here?
Answer: The minimal effective concentration was under 10 µM.

Question: What does the source list for CCCCN1CC2(C1)OCc1cc(C3=NSC(c4cc(Cl)c(F)c(Cl)c4)(C(F)(F)F)C3)ccc12 (centres unmarked) [Compound 20, 1′-butyl-6-[5-(3,5-dichloro-4-fluoro-phenyl)-5-(trifluoromethyl)-4H-isothiazol-3-yl]spiro[1H-isobenzofuran-3,3′-azetidine]]?
Answer: minimal effective concentration [1]: < 10 µM; minimal effective concentration [2]: < 1 µg/mL

Question: Which minimal effective concentration [2] does the source give for O=C(CCC(F)(F)F)N1CC2(C1)OCc1cc(C3=NSC(c4cc(Cl)c(F)c(Cl)c4)(C(F)(F)F)C3)ccc12 (centres unmarked) [Compound 10, 1-[6-[5-(3,5-dichloro-4-fluoro-phenyl)-5-(trifluoromethyl)-4H-isothiazol-3-yl]spiro[1H-isobenzofuran-3,3′-azetidine]-1′-yl]-4,4,4-trifluoro-butan-1-one] here?
Answer: The minimal effective concentration was under 1 µg/mL.

Question: For CC(C)OCC(=O)N1CC2(C1)OCc1cc(C3=NSC(c4cc(Cl)c(F)c(Cl)c4)(C(F)(F)F)C3)ccc12 (centres unmarked) [Compound 23, 1-[6-[5-(3,5-dichloro-4-fluoro-phenyl)-5-(trifluoromethyl)-4H-isothiazol-3-yl]spiro[1H-isobenzofuran-3,3′-azetidine]-1′-yl]-2-isopropoxy-ethanone], which minimal effective concentration [1] is on record?
Answer: Its minimal effective concentration is under 10 µM.

Question: COCC(=O)N1CC2(C1)OCc1cc(C3=NSC(c4cc(Cl)c(F)c(Cl)c4)(C(F)(F)F)C3)ccc12 (centres unmarked) [Compound 22, 1-[6-[5-(3,5-dichloro-4-fluoro-phenyl)-5-(trifluoromethyl)-4H-isothiazol-3-yl]spiro[1H-isobenzofuran-3,3′-azetidine]-1′-yl]-2-methoxy-ethanone] was tested. Which minimal effective concentration [1] did it give?
Answer: The minimal effective concentration was under 10 µM.
